Target: T1, ER (Homo sapiens, UniProt P03372)
T1 construct: host or cells: T47D and MCF7 human breast cancer cells
T1 sequence (P03372 1-595): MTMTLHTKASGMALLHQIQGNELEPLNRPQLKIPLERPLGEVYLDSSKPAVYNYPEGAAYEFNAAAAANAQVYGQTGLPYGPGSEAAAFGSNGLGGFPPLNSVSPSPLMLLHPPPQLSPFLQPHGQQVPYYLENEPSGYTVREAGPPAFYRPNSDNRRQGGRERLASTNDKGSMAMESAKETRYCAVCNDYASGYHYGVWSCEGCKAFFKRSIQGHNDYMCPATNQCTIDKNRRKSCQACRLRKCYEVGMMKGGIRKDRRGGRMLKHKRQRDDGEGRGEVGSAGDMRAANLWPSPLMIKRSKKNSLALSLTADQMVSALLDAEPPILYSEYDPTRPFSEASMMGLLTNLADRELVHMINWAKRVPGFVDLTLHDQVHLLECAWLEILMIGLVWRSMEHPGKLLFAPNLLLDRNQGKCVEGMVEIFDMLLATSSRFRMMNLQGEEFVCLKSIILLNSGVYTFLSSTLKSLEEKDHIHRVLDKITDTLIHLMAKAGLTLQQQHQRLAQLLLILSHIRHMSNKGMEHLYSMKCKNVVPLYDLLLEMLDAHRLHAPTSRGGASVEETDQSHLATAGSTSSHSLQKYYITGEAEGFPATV
Assay: ER degradation activity, in-cell western blot analysis in T47D cells
Type: cell-based
Settings: 16 hours, Table A does not say which cell line (T47D or MCF7), read-out: Potency (DC50)
Procedure, shortened: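 Read-out is near-infrared fluorescence from an in-cell western, expressed as ER percentage relative to untreated and DMSO controls taken as 100%. T47D breast cancer cells received compound for 16 h in 0.5% DMSO.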

| DC50 [nM] | SMILES |
| --- | --- |
| > 100 | C[C@@H]1Cc2cc(O)ccc2[C@@H](c2c(F)cc(N3CC4(CCN(C(=O)CN5Cc6cc7c(cc6C5)C(=O)N(C5CCC(=O)NC5=O)C7)CC4)C3)cc2F)N1CC(C)(F)F (stereo partly drawn) [E 27, 3-(6-(2-(2-(4-((1S,3R)-2-(2,2-difluoropropyl)-6-hydroxy-3-methyl-1,2,3,4-tetrahydroisoquinolin-1-yl)-3,5-difluorophenyl)-2,7-diazaspiro[3.5]nonan-7-yl)-2-oxoethyl)-1-oxo-3,5,6,7-tetrahydropyrrolo[3,4-f]isoindol-2(1H)-yl)piperidine-2,6-dione] |
| > 100 | C[C@@H]1Cc2cc(O)ccc2[C@@H](c2c(F)cc(N3CCC4(CCN(C(=O)CN5Cc6cc7c(cc6C5)C(=O)N(C5CCC(=O)NC5=O)C7)C4)C3)cc2F)N1CC(C)(F)F (stereo partly drawn) [E 28, 3-(6-(2-(7-(4-((1S,3R)-2-(2,2-difluoropropyl)-6-hydroxy-3-methyl-1,2,3,4-tetrahydroisoquinolin-1-yl)-3,5-difluorophenyl)-2,7-diazaspiro[4.4]nonan-2-yl)-2-oxoethyl)-1-oxo-3,5,6,7-tetrahydropyrrolo[3,4-f]isoindol-2(1H)-yl)piperidine-2,6-dione] |
| > 100 | C[C@@H]1Cc2cc(O)ccc2[C@@H](c2c(F)cc(N3CCC(N4CCC(C(=O)N5Cc6cc7c(cc6C5)C(=O)N(C5CCC(=O)NC5=O)C7=O)CC4)CC3)cc2F)N1CC(C)(F)F (stereo partly drawn) [E 29, 6-(1′-(4-((1S,3R)-2-(2,2-difluoropropyl)-6-hydroxy-3-methyl-1,2,3,4-tetrahydroisoquinolin-1-yl)-3,5-difluorophenyl)-[1,4′-bipiperidine]-4-carbonyl)-2-(2,6-dioxopiperidin-3-yl)-6,7-dihydropyrrolo[3,4-f]isoindole-1,3(2H,5H)-dione] |
| > 100 | C[C@@H]1Cc2cc(O)ccc2[C@@H](c2c(F)cc(N3CCC(N4CCC(C(=O)N5Cc6cc7c(cc6C5)C(=O)N(C5CCC(=O)NC5=O)C7)CC4)CC3)cc2F)N1CC(C)(F)F (stereo partly drawn) [E 30, 3-(6-(1′-(4-((1S,3R)-2-(2,2-difluoropropyl)-6-hydroxy-3-methyl-1,2,3,4-tetrahydroisoquinolin-1-yl)-3,5-difluorophenyl)-[1,4′-bipiperidine]-4-carbonyl)-1-oxo-3,5,6,7-tetrahydropyrrolo[3,4-f]isoindol-2(1H)-yl)piperidine-2,6-dione] |
| > 100 | C[C@@H]1Cc2cc(O)ccc2[C@@H](c2c(F)cc(N3CCC4(CCN(CC(=O)N5Cc6cc7c(cc6C5)C(=O)N(C5CCC(=O)NC5=O)C7=O)C4)C3)cc2F)N1CC(C)(F)F (stereo partly drawn) [E 31, 6-(2-(7-(4-((1S,3R)-2-(2,2-difluoropropyl)-6-hydroxy-3-methyl-1,2,3,4-tetrahydroisoquinolin-1-yl)-3,5-difluorophenyl)-2,7-diazaspiro[4.4]nonan-2-yl)acetyl)-2-(2,6-dioxopiperidin-3-yl)-6,7-dihydropyrrolo[3,4-f]isoindole-1,3(2H,5H)-dione] |
| > 100 | C[C@@H]1Cc2cc(O)ccc2[C@@H](c2c(F)cc(N3CCC4(CCN(CC(=O)N5Cc6cc7c(cc6C5)C(=O)N(C5CCC(=O)NC5=O)C7)C4)C3)cc2F)N1CC(C)(F)F (stereo partly drawn) [E 32, 3-(6-(2-(7-(4-((1S,3R)-2-(2,2-difluoropropyl)-6-hydroxy-3-methyl-1,2,3,4-tetrahydroisoquinolin-1-yl)-3,5-difluorophenyl)-2,7-diazaspiro[4.4]nonan-2-yl)acetyl)-1-oxo-3,5,6,7-tetrahydropyrrolo[3,4-f]isoindol-2(1H)-yl)piperidine-2,6-dione] |
| > 100 | C[C@@H]1Cc2cc(O)ccc2[C@@H](c2c(F)cc(N3CCC4(CCN(CC(=O)N5Cc6cc7c(cc6C5)C(=O)N(C5CCC(=O)NC5=O)C7=O)C4)CC3)cc2F)N1CC(C)(F)F (stereo partly drawn) [E 33, 6-(2-(8-(4-((1S,3R)-2-(2,2-difluoropropyl)-6-hydroxy-3-methyl-1,2,3,4-tetrahydroisoquinolin-1-yl)-3,5-difluorophenyl)-2,8-diazaspiro[4.5]decan-2-yl)acetyl)-2-(2,6-dioxopiperidin-3-yl)-6,7-dihydropyrrolo[3,4-f]isoindole-1,3(2H,5H)-dione] |
| 10 to 100 | C[C@@H]1Cc2cc(O)ccc2[C@@H](c2c(F)cc(N3CCC4(CCN(CC(=O)N5Cc6cc7c(cc6C5)C(=O)N(C5CCC(=O)NC5=O)C7)C4)CC3)cc2F)N1CC(C)(F)F (stereo partly drawn) [E 34, 3-(6-(2-(8-(4-((1S,3R)-2-(2,2-difluoropropyl)-6-hydroxy-3-methyl-1,2,3,4-tetrahydroisoquinolin-1-yl)-3,5-difluorophenyl)-2,8-diazaspiro[4.5]decan-2-yl)acetyl)-1-oxo-3,5,6,7-tetrahydropyrrolo[3,4-f]isoindol-2(1H)-yl)piperidine-2,6-dione] |
| < 10 | C[C@@H]1Cc2cc(O)ccc2[C@@H](c2c(F)cc(N3CCC4(CC3)CN(C(=O)CN3Cc5cc6c(cc5C3)C(=O)N(C3CCC(=O)NC3=O)C6)C4)cc2F)N1CC(F)F (some centres unmarked) [E 35] |
| < 10 | C[C@@H]1Cc2cc(O)ccc2[C@@H](c2c(F)cc(N3CC4(CCN(C(=O)CN5Cc6cc7c(cc6C5)C(=O)N(C5CCC(=O)NC5=O)C7)C4)C3)cc2F)N1CC(F)F (stereo partly drawn) [E 36, 3-(6-(2-(2-(4-((1S,3R)-2-(2,2-difluoroethyl)-6-hydroxy-3-methyl-1,2,3,4-tetrahydroisoquinolin-1-yl)-3,5-difluorophenyl)-2,6-diazaspiro[3.4]octan-6-yl)-2-oxoethyl)-1-oxo-3,5,6,7-tetrahydropyrrolo[3,4-f]isoindol-2(1H)-yl)piperidine-2,6-dione] |
| < 10 | C[C@@H]1Cc2cc(O)ccc2[C@@H](c2c(F)cc(N3CCC4(CN(C(=O)CN5Cc6cc7c(cc6C5)C(=O)N(C5CCC(=O)NC5=O)C7)C4)C3)cc2F)N1CC(F)F (stereo partly drawn) [E 37, 3-(6-(2-(6-(4-((1S,3R)-2-(2,2-difluoroethyl)-6-hydroxy-3-methyl-1,2,3,4-tetrahydroisoquinolin-1-yl)-3,5-difluorophenyl)-2,6-diazaspiro[3.4]octan-2-yl)-2-oxoethyl)-1-oxo-3,5,6,7-tetrahydropyrrolo[3,4-f]isoindol-2(1H)-yl)piperidine-2,6-dione] |
| 10 to 100 | C[C@@H]1Cc2cc(O)ccc2[C@@H](c2c(F)cc(N3CCC4(CN(CC(=O)N5Cc6cc7c(cc6C5)C(=O)N(C5CCC(=O)NC5=O)C7)C4)C3)cc2F)N1CC(F)F (stereo partly drawn) [E 38, 3-(6-(2-(6-(4-((1S,3R)-2-(2,2-difluoroethyl)-6-hydroxy-3-methyl-1,2,3,4-tetrahydroisoquinolin-1-yl)-3,5-difluorophenyl)-2,6-diazaspiro[3.4]octan-2-yl)acetyl)-1-oxo-3,5,6,7-tetrahydropyrrolo[3,4-f]isoindol-2(1H)-yl)piperidine-2,6-dione] |
| < 10 | C[C@@H]1Cc2cc(O)ccc2[C@@H](c2c(F)cc(N3CCC4(CC3)CN(CC(=O)N3Cc5cc6c(cc5C3)C(=O)N(C3CCC(=O)NC3=O)C6)C4)cc2F)N1CC(F)F (some centres unmarked) [E 39] |
| < 10 | C[C@@H]1Cc2cc(O)ccc2[C@@H](c2c(F)cc(N3CC4(CCN(CC(=O)N5Cc6cc7c(cc6C5)C(=O)N(C5CCC(=O)NC5=O)C7)C4)C3)cc2F)N1CC(F)F (stereo partly drawn) [E 40, 3-(6-(2-(2-(4-((1S,3R)-2-(2,2-difluoroethyl)-6-hydroxy-3-methyl-1,2,3,4-tetrahydroisoquinolin-1-yl)-3,5-difluorophenyl)-2,6-diazaspiro[3.4]octan-6-yl)acetyl)-1-oxo-3,5,6,7-tetrahydropyrrolo[3,4-f]isoindol-2(1H)-yl)piperidine-2,6-dione] |
| < 10 | C[C@@H]1Cc2cc(O)ccc2[C@@H](c2c(F)cc(N3CCC4(CC3)CN(C(=O)CN3Cc5cc6c(cc5C3)C(=O)N(C3CCC(=O)NC3=O)C6=O)C4)cc2F)N1CC(F)F (stereo partly drawn) [E 41, 6-(2-(7-(4-((1S,3R)-2-(2,2-difluoroethyl)-6-hydroxy-3-methyl-1,2,3,4-tetrahydroisoquinolin-1-yl)-3,5-difluorophenyl)-2,7-diazaspiro[3.5]nonan-2-yl)-2-oxoethyl)-2-(2,6-dioxopiperidin-3-yl)-6,7-dihydropyrrolo[3,4-f]isoindole-1,3(2H,5H)-dione] |
| < 10 | C[C@@H]1Cc2cc(O)ccc2[C@@H](c2c(F)cc(N3CC4(CN(C(=O)CN5Cc6cc7c(cc6C5)C(=O)N(C5CCC(=O)NC5=O)C7=O)C4)C3)cc2F)N1CC(F)F (stereo partly drawn) [E 42, 6-(2-(6-(4-((1S,3R)-2-(2,2-difluoroethyl)-6-hydroxy-3-methyl-1,2,3,4-tetrahydroisoquinolin-1-yl)-3,5-difluorophenyl)-2,6-diazaspiro[3.3]heptan-2-yl)-2-oxoethyl)-2-(2,6-dioxopiperidin-3-yl)-6,7-dihydropyrrolo[3,4-f]isoindole-1,3(2H,5H)-dione] |
| < 10 | C[C@@H]1Cc2cc(O)ccc2[C@@H](c2c(F)cc(N3CC4(CCN(C(=O)CN5Cc6cc7c(cc6C5)C(=O)N(C5CCC(=O)NC5=O)C7=O)C4)C3)cc2F)N1CC(F)F (stereo partly drawn) [E 43, 6-(2-(2-(4-((1S,3R)-2-(2,2-difluoroethyl)-6-hydroxy-3-methyl-1,2,3,4-tetrahydroisoquinolin-1-yl)-3,5-difluorophenyl)-2,6-diazaspiro[3.4]octan-6-yl)-2-oxoethyl)-2-(2,6-dioxopiperidin-3-yl)-6,7-dihydropyrrolo[3,4-f]isoindole-1,3(2H,5H)-dione] |

From patent publication US20240190880A1 (THE REGENTS OF THE UNIVERSITY OF MICHIGAN, priority 2021, published 2024)
